Results on 3 compounds are retold here after patent US7432283B2, “Heterocyclic GABAA subtype selective receptor modulators” (Roche Palo Alto LLC, priority 2004, dated 2008).

In one data set the target is T1, GABAA α2β3γ2 (Homo sapiens, UniProt P18507+P28472+P47869).
T1 construct: expressed in transfected cells; host or cells: HEK293
As to the kind of experiment: 35S-TBPS binding assay, GABAA α2β3γ2. To be noted: 35S-TBPS (5 nM) competition, GABA 1 μM, HEK293 cell membranes, 2 hours at room temperature; for IC50: read-out: pIC50 α2β3γ2 (converted). Here is the method: (§1) The binding assay is based on the assay reported by K. Gee et al., Eur. J. Pharmacol. 1987 136:419-423.
(§2) Homogenate preparation: Membrane preparations of HEK293 cells containing either GABAA α1β2γ2 or GABAA α2β3γ2 constructs were performed according to a modified procedure previously described by Gee et al. (supra). Whole HEK 293 cells in D-PBS (calcium/magnesium free) buffer adjusted to pH 7.4 were centrifuged at 7,280×g for 20 m. After discarding the supernatant, the pellet was resuspended in the buffer and centrifuged at 1,820×g for 10 m. Afterwards, the supernatant was discarded and the pellet resuspended in ice-cold preparation buffer (50 mM Tris HCl pH 7.4, 4° C. and 150 mM KCl), homogenized for 30 sec using a Brinkmann Polytron PT3000 (setting 6) and centrifuged at 48,000×g for 30 m at 4° C. The centrifugation and homogenization procedure was repeated two more times for a total of 3 times before resuspending the membranes at a final protein concentration of 0.5 mg/mL. Aliquots (30 mL) of the final membrane preparation were then centrifuged at 48,000×g for 30 m, and the resulting pellets were stored at −80° C. until required.
(§3) 35S-TBPS binding assay. Membrane pellets containing either GABAA α1β2γ2 or GABAA α2β3γ2 constructs were thawed on ice, resuspended in 10 mL of 50 mM Tris HCl pH 7.4, 4° C. and 150 mM KCl and centrifuged at 48,000×g, 30 m at 4° C. After discarding the supernatant, the pellet was resuspended in 30 mL incubation buffer (50 mM Tris HCl pH 7.4, 25° C. and 150 mM KCl) at approximately 0.5 mg/mL protein concentration. In ^35S-TBPS competition studies, HEK293 membranes were incubated with ^35S-TBPS (5 nM final) and GABA (1 μM) in the absence or presence of competitor at concentrations ranging from 0.01 nM to 10 μM in 125 μL incubation buffer for 2 hours at room temperature (˜22° C.). Non-specific binding was assayed with picrotoxin (100 μM final concentration). […] Measurement of bound radioactivity was performed using a Packard Microplate 96 well topcount scintillation counter. […]

The target of another data set is T2, GABAA α1β2γ2 (Homo sapiens, UniProt P14867+P18507+P47870).
T2 construct: expressed in transfected cells; host or cells: HEK293
Description: 35S-TBPS binding assay, GABAA α1β2γ2. To be noted: 35S-TBPS (5 nM) competition, GABA 1 μM, HEK293 cell membranes, 2 hours at room temperature; for IC50: read-out: pIC50 α1β2γ2 (converted). Here is the method:
as §1, §2, §3

T2 sequence (P14867 28-456): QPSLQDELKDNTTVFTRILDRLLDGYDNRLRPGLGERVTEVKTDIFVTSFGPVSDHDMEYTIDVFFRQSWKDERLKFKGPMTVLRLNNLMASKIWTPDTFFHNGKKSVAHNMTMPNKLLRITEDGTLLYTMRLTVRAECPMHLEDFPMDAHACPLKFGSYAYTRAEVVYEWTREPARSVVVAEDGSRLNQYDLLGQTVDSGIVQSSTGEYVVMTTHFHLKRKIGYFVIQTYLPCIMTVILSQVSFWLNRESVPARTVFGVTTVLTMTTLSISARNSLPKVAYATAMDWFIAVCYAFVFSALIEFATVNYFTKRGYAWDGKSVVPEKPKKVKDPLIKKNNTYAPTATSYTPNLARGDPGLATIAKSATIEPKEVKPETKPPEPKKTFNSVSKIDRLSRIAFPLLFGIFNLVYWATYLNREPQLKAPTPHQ
T2 sequence (P47870 25-512 limits assumed): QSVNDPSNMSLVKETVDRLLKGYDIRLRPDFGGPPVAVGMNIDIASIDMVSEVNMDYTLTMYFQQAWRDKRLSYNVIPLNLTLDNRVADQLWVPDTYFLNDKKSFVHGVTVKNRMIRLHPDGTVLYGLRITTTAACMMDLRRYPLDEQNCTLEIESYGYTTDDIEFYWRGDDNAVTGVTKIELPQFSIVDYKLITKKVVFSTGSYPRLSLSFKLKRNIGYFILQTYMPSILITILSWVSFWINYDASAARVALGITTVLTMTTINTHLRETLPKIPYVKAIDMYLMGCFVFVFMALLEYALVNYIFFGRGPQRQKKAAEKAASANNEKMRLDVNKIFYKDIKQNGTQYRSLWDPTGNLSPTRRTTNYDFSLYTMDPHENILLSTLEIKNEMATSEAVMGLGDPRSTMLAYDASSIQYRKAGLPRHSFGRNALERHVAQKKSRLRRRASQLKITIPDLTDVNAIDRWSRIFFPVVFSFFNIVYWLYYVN
T2 sequence (P18507 40-475): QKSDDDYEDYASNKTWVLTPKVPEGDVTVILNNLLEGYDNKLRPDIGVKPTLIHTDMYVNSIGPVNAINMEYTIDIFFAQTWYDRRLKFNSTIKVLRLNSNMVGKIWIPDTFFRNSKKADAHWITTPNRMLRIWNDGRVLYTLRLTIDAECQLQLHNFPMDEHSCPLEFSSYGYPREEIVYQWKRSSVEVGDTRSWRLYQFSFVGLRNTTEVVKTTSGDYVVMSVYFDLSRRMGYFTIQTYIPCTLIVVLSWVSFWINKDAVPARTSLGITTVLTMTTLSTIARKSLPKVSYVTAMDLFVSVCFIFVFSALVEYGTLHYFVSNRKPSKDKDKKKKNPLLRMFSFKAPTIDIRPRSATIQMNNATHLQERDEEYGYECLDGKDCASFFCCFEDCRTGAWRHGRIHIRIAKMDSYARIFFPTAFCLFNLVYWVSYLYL
T1 sequence (P47869 29-451): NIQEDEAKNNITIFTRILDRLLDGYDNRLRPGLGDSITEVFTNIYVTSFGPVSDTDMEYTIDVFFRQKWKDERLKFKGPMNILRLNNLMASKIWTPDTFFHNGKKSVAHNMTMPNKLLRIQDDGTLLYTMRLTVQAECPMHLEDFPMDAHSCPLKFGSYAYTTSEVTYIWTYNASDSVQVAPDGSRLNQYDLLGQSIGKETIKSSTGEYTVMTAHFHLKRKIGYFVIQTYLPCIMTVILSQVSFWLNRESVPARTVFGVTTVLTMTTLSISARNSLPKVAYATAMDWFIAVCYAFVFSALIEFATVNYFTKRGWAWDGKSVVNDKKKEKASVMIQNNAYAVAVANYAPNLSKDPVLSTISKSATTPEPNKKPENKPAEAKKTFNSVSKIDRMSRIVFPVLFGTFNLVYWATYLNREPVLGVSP
T1 sequence (P28472 26-473): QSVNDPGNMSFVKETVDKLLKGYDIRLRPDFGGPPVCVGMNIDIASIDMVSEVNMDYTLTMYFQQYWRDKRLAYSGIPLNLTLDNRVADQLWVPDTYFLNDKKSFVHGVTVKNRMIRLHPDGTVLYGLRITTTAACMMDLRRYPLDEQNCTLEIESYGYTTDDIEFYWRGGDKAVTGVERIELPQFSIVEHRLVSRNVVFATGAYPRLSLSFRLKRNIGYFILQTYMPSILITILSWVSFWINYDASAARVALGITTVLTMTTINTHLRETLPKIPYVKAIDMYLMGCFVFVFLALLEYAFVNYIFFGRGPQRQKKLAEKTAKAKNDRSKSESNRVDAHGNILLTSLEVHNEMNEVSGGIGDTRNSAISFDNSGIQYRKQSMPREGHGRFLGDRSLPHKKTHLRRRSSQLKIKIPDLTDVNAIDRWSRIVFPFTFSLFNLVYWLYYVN
T1 sequence (P18507 40-475): as the sequence (P18507 40-475) above

Take `Cc1c2c(nn1C)N(c1ccc(Cl)cc1Cl)CCC2` [Compound 2-17, 7-(2,4-Dichloro-phenyl)-2,3-dimethyl-4,5,6,7-tetrahydro-2H-pyrazolo[3,4-b]pyridine]: the melting point was in the range of 66.6 to 76.6 °C. For the same compound, the IC50 at GABAA α2β3γ2 is 105 nM. Further, the IC50 on GABAA α1β2γ2 was 2840 nM.
For `Cn1nc2c(c1Cl)CCCN2c1ccc(Cl)cc1Cl` [Compound 1-9, 3-chloro-7-(2,4-dichloro-phenyl)-2-methyl-4,5,6,7-tetrahydro-2H-pyrazolo [3,4-b]pyridine], in that order: 94.5 to 95.5 °C, 96.4 nM and 1200 nM.
As to “7-(2,4-Dichloro-phenyl)-3-ethynyl-2-methyl-4,5,6,7-tetrahydro-2H-|pyrazolo[3,4-b]pyridine [Compound 3-10]”, the “pIC50 α2β3γ2” value at GABAA α2β3γ2 was determined as 6.883. Moreover, at GABAA α1β2γ2, the “pIC50 α1β2γ2” value is given as 5.423.
